Assay results reported in patent US8362066B2, “Compounds and methods for treating protein folding disorders” (Treventis Corporation, priority 2006, dated 2013).
“Also recorded” adds a separate entry of the source.

Columns and labels:
Aβ1-40 [1] = target: T1, Aβ1-40 (Homo sapiens, UniProt P05067); experiment: TEM of Aβ1-40 fibrils; assay type: biochemical; details: Aβ1-40 20 μM; for Aβ1-40 fibrils (TEM): absence of ThT; for Aβ1-40 fibril formation (TEM): compound 20 μM, following ThT aggregation assay, FIG. 11
T1 construct: Both Aβ1-40 and Aβ1-42 were purchased from Anaspec; purchased Anaspec
Procedure: (§1) A modified version of the procedure of Cohen et al. (Biochemistry 2006, 45: 4727-35) was followed for TEM analysis. Uranylacetate was used as negative stain (Electron Microscopy Sciences) and was made as a 3% solution and stored at 5° C. in the dark to reduce photodecay. Aspirated samples from ThT (Aβ1-40) and ThS (Tau 441) aggregation assays, or Aβ1-42 incubated (37° C.) for 30 min. in the presence and absence of compounds were used in the TEM analyses. Samples were carefully loaded on Formvar-coated 400 mesh copper grids (Electron Microscopy Sciences) as a 10 μL drop. After sitting for 60 seconds, excess fluid was gently dabbed off with filter paper. Next, the 3% uranylacetate was added as a drop onto the grid and left to stand for another 60 seconds. The excess fluid was again dabbed off by filter paper. Samples were left to dry for at least 30 minutes prior to being viewed on an electron microscope operating at 80 kV.

Aβ1-42 [2] = target: T2, Aβ1-42 (Homo sapiens, UniProt P05067); experiment: Tris-tricine SDS-PAGE, Aβ1-42 self-assembly; assay type: biochemical; details: versus control, FIG. 8
T2 construct: Both Aβ1-40 and Aβ1-42 were purchased from Anaspec; purchased Anaspec
Procedure: (§2) Pre-cast polyacrylamide gels were purchased from NuSep (10-20% Tris-tricine-SDS). These were chosen for their large separation range of 2.5 to 205 kDa. Molecular weight markers were purchased from Sigma Aldrich and diluted twenty fold for individual use. Three buffers were used for this technique: 1) Sample buffer (1.25 mL 0.5 M Tris-HCl (pH 6.8), 2.5 mL glycerol, 2.0 mL 10% SDS, 0.2 mL 0.5% bromophenol blue, 3.55 mL distilled water) which was used as the leading band in the gel. 2) Cathode Buffer (12.11 g tris base, 17.92 g tricine, 1 g SDS, diluted to 1 L with distilled water) which was the inner buffer in the tank assembly. 3) Anode Buffer (5× concentrated: 121.1 g tris base in 1 L of distilled water, pH 8.9 adjusted with concentrated HCl) which was the outer buffer and loaded at 1× concentration. Both Aβ1-40 and Aβ1-42 were purchased from Anaspec.
Five solutions were required to stain the gels using the silver stain protocol: 1) Fixer 1 (40% methanol, 10% acetic acid, diluted to 1 L with Millie-Q water) 2) Fixer 2 (45 g anhydrous sodium acetate, 300 mL methanol, 5 mL 25% glutaraldehyde, diluted to 1 L with Millie-Q water), 3) a) Silver stain A (15 mL of 25% ammonia solution, 0.8 g sodium hydroxide, diluted to 950 mL with Millie Q water). b) Silver stain B (6 g of silver nitrate in 50 mL Millie Q water). […]

Aβ1-40 [3] = target: T1, Aβ1-40; experiment: ThT fluorescence assay, inhibition of Aβ1-40 aggregation; assay type: biochemical
Procedure: The compounds of the invention were evaluated for activity against Aβ aggregation in a kinetic thioflavin T (ThT) fluorescence assay similar to that of Chalifour, R. J., et al., J. Biol. Chem. (2003) 278: 34874-81. IC50 values for inhibition of Aβ1-40 aggregation in the ThT fluorescence assay for a number compounds of the present invention were determined. Values were calculated by solving the equation y=(m2)/(1+(x/m3)^m4) where y is percent aggregation, x is compound concentration, and m3 is the concentration giving 50% aggregation (i.e. IC50), using KaleidaGraph 4.0 (Synergy Software). Dye-binding ThT/ThS protein aggregation assays for Aβ, tau and α-synuclein were performed as described in Example 8 of US2007/0015813.

[4] = test system: SH-SY5Y neuroblastoma cells; experiment: MTT cell viability assay, protection from Aβ40; assay type: cell-based; details: Aβ40 20 μM
Procedure: The assay was based on that reported by Conte and co-workers (Conte, A., Pellegrini, s. & Tagliazucchi, D. 2Q03. Brain Res. Bull. 62, 29-38). Briefly, Aβ1-40 (1.0 mg) was dissolved directly in Tris base ([…], […], pH approximately 10). The pH was dropped to 7.4 using concentrated HCl and the solution diluted ten-fold with growth medium consisting of Dulbecco's Modified Eagle Medium (high glucose) containing 10% fetal bovine serum. penicillin-G (10,000 units/mL) and streptomycin (10 mg/mL); giving 20 μM Aβ40. For non-Aβ-containing controls. growth medium was diluted 10% with Tris buffer (20 mM, pH 7.4). SH-SY5Y neuroblastoma cells were seeded at approximately 20,000 cells per well in a covered 96-well clear polystyrene plate and incubated at 37° C., 5% CO2 for 24 h. After discarding supernatant, growth medium (200 μL), containing either Aβ3-40 or vehicle (controls), was added to the wells, followed by test compound in DMSO (0.5 μL) or DMSO alone (controls). Incubations all had 5 or more replicates. After incubating for 6-10 h (37° C., 5% C02), the dye 3-(4,5-dimethylthiazol-2-yl)-2,5-diphenyltetrazolium bromide (MTT, 20 microL. 5 mg/mL in PBS) was added to each well and the plate incubated for another 2 h. Medium was discarded and the formazan product dissolved by adding DMSO (100 μL) and shaking. Absorbance was measured at 540 nm in a Tecan Genios microplate reader.

Aβ1-40 [5] = target: T1, Aβ1-40; experiment: Tris-tricine SDS-PAGE, Aβ1-40 self-assembly following ThT aggregation assay; assay type: biochemical; details: FIG. 9
Procedure: as §2
(§3) Five solutions were required to stain the gels using the silver stain protocol: 1) Fixer 1 (40% methanol, 10% acetic acid, diluted to 1 L with Millie-Q water) 2) Fixer 2 (45 g anhydrous sodium acetate, 300 mL methanol, 5 mL 25% glutaraldehyde, diluted to 1 L with Millie-Q water), 3) a) Silver stain A (15 mL of 25% ammonia solution, 0.8 g sodium hydroxide, diluted to 950 mL with Millie Q water). b) Silver stain B (6 g of silver nitrate in 50 mL Millie Q water). Solution B was then slowly added to solution A. 4) Developer (0.1 g citric acid, 1 mL formaldehyde, diluted to 1 L with Millie-Q water), 5) Stop solution (50 mL acetic acid, diluted to 1 L with Millie-Q water).
(§4) Following a ThT (Aβ1-40) or ThS (Tau 441) aggregation assay, described in Example 8 of US2007/0015813, samples were immediately aspirated and stored in centrifuge tubes. 10 μL of each sample was transferred to a microfuge tube and diluted 1:1 with sample buffer before being incubated (37° C.) for 30 minutes and loaded in the precast gels (15 μL in each well). The gel was then run at 100 V for approximately one hour or until the leading band reached the bottom of the gel.
(§5) Once the gel had finished running, it was removed from its plastic case and placed in a tray for staining. Approximately 200-250 mL volume was used for all the solutions. The gel was first washed with distilled water briefly to rinse off the excess buffer from the tank. It was then immersed in Fixer 1 for 30 minutes. followed by Fixer 2 for 30 minutes. Once the gel was fixed it then underwent three water washes at 10 minutes per wash. After the water washes, the gel was stained for 30 minutes using the silver stain solution. Excess stain was removed using three four-minute water washes. The gel was then immersed in the developer solution to visualize the stain. This took place for approximately 5 minutes or until the desired intensity was reached. To immediately stop the developing process the gel was placed in the stop solution for 10 minutes.

α-synuclein = α-synuclein (Homo sapiens, UniProt P37840); experiment: ThT fluorescence assay, α-synuclein aggregation; assay type: biochemical; details: α-synuclein 4 μM; compound 100 μM and 20 μM; 96 hours, 37° C., FIG. 16
Procedure: (§6) The following procedures were used. The compounds were examined by circular dichroism (CD) to confirm their anti-amyloidogenic activity and were further evaluated for inhibition of both tau and α-synuclein aggregation in Thioflavin S (ThS) and ThT dye-binding fluorescence assays, respectively. The compounds were also evaluated in a MTT [3-(4,5-dimethylthiazol-2-yl)-2,5-diphenyltetrazolium bromide] cell viability assay (Kaneko, I., et al., J. Neurochem. (1995) 65: 2585-93). Pharmacokinetic (PK) testing was also performed. Compounds administered to mice (IP or PO dosing) had no toxicity at doses up to 300 mg/kg and were present in brain more than four hours after administration.
(§7) Dye-binding ThT/ThS protein aggregation assays for Aβ, tau and α-synuclein were performed as described in Example 8 of US2007/0015813.

Aβ1-42 [6] = target: T2, Aβ1-42; experiment: TEM of Aβ1-42 fibrils; assay type: biochemical; details: Aβ1-42 20 μM, absence of ThT, FIG. 13
Procedure: as §1

Tau 441 [7] = target: T3, Tau 441 (Homo sapiens, UniProt P10636); experiment: TEM of Tau 441 fibrils following ThS aggregation assay; assay type: biochemical; details: Tau 441 6 μM, compound 20 μM, FIG. 14
Procedure: as §1

Tau 441 [8] = target: T3, Tau 441; experiment: ThS fluorescence assay, Tau 441 aggregation; assay type: biochemical; details: Tau 441 6 μM; compound 50 μM and 10 μM; 24 hours, 37° C., FIG. 15
Procedure: as §6, §7

Tau 441 [9] = target: T3, Tau 441; experiment: Tris-tricine SDS-PAGE, Tau 441 self-assembly following ThS aggregation assay; assay type: biochemical; details: FIG. 10; for effect on Tau 441 self-assembly, monomer fragmentation (SDS-PAGE): relative to control
Procedure: as §2, §3, §4, §5

[10] = test system: APP/PS1 transgenic mice hippocampal slices; experiment: LTP electrophysiology in hippocampal slices; assay type: cell-based; details: 50 μM, FIG. 18
Procedure: Electrophysiological analysis was performed on males (see detailed description in Gong, B., el al., Cell (2006) 126: 775-88). Hippocampal slices (400 μm) were cut with a tissue chopper and maintained in an interface chamber at 29° C. for 90 min prior to recording. Briefly. CA1 fEPSPs were recorded by placing both the stimulating and the recording electrodes in CA1 stratum radiatum. Basal synaptic transmission was assayed by plotting the stimulus voltages against slopes of fEPSP. For LTP experiments, a 15 min baseline was recorded every min at an intensity that evokes a response ˜35% of the maximum evoked response. LTP was induced using θ-burst stimulation (4 pulses at 100 Hz, with the bursts repeated at 5 Hz and each tetanus including 3 ten-burst trains separated by 15 sec).

T2 sequence (P05067 672-713 limits assumed): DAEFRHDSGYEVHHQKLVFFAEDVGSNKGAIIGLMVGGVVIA
T3 sequence (P10636 1-441 isoform P10636-8): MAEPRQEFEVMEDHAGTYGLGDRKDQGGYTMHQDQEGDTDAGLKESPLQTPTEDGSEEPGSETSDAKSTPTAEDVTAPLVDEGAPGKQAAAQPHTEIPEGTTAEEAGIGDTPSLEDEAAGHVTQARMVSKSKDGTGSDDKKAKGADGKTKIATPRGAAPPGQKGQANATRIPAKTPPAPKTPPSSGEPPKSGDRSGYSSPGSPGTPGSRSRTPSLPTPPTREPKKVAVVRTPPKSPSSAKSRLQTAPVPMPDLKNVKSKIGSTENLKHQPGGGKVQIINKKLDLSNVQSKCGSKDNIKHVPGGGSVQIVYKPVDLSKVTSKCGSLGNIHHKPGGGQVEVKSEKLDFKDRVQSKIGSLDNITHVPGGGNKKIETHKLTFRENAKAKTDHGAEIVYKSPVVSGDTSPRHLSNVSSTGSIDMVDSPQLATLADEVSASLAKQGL
T1 sequence (P05067 672-711 limits assumed): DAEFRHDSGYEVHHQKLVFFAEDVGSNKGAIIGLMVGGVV

## O=C(O)c1cccc2c(-c3c(O)c(O)cc4ccccc34)c[nH]c12 [QR-0273]
Aβ1-40 [1]; compound 100 μM, FIG. 12
  Aβ1-40 fibrils (TEM): increase in the number of fibrils
Aβ1-42 [2]
  effect on Aβ1-42 self-assembly (SDS-PAGE): increase in the presence of monomer and pentamer as well as the appearance of a dimer
Aβ1-40 [3]
  IC50: 10.3 µM

## Oc1ccc2[nH]cc(-c3c[nH]c4ncccc34)c2c1 [QR-0161]
[4]; 20 and 50 μM compound
  % cell viability, protection from Aβ40: significantly active

## O=C(O)c1cccc2c(-c3c[nH]c4ccccc34)c[nH]c12 [QR-0112]
[4]; 50 μM compound
  % cell viability, protection from Aβ40: significantly protective
[4]; 2 and 10 μM compound
  % cell viability, protection from Aβ40: trends towards protection
Aβ1-40 [1]
  Aβ1-40 fibril formation (TEM): increase in fibril formation but of a different morphology
Aβ1-40 [5]
  effect on distribution of Aβ1-40 among states of assembly / monomer (SDS-PAGE): increase in the concentration of Aβ1-40 monomer
Aβ1-40 [3]
  IC50: 34.4 µM

## O=C(O)c1ccc2[nH]cc(-c3c(O)c(O)cc4ccccc34)c2c1 [QR-0194]
α-synuclein
  inhibition of α-synuclein aggregation (ThT fluorescence): showed inhibition
Aβ1-42 [6]; compound 20 μM
  Aβ1-42 fibrils (TEM): apparent increase in the number of fibrils
Aβ1-40 [1]
  Aβ1-40 fibril formation (TEM): increase in fibril formation but of a different morphology
Aβ1-40 [3]
  IC50: 17.7 µM

## COc1ccc2cc(-c3c[nH]c4c(C(=O)O)cccc34)ccc2c1 [QR-0262, 3-(2-Methoxynaphthalen-6-yl)-1H-indole-7-carboxylic acid]
Tau 441 [7]
  Tau 441 assemblies seen (TEM): spherical assemblies that were not present in the control
  Tau 441 fibril formation (TEM): increase in fibril formation
Tau 441 [8]
  inhibition of Tau 441 aggregation (ThS fluorescence): only moderately inhibited
Tau 441 [9]
  effect on Tau 441 self-assembly, monomer fragmentation (SDS-PAGE): no clear effect
Aβ1-40 [3]
  IC50: 4.4 µM

## O=C(O)c1cc2cc(-c3ccc4c(c3)OCCO4)ccc2c(Br)c1O [QR-0281, 4-Bromo-7-(2,3-dihydrobenzo[b][1,4]dioxin-7-yl)-3-hydroxyynaphthalene-2-carboxylic acid]
Tau 441 [7]
  Tau 441 assemblies seen (TEM): spherical assemblies that were not present in the control
  Tau 441 fibril formation (TEM): increase in fibril formation
Tau 441 [8]
  inhibition of Tau 441 aggregation (ThS fluorescence): greatly inhibited
Tau 441 [9]
  Tau 441 dimer and trimer bands (SDS-PAGE): appearance of dimer and trimer bands
  effect on Tau 441 self-assembly, monomer fragmentation (SDS-PAGE): decreased fragmentation of tau 441 monomer
Aβ1-40 [3]
  IC50: 4.6 µM

## COc1ccc2[nH]cc(-c3c[nH]c4ccc(N)cc34)c2c1 [QR-0185]
Aβ1-42 [6]; compound 100 μM
  Aβ1-42 fibrils (TEM): decrease in fibrils
Aβ1-40 [3]
  IC50: 12.5 µM

## O=C(O)c1cc2cc(-c3ccc4cc(O)ccc4c3)ccc2c(Br)c1O [QR-0263, 4-bromo-3-hydroxy-7-(2-hydroxynaphthalen-6-yl)naphthalene-2-carboxylic acid]
Tau 441 [8]
  inhibition of Tau 441 aggregation (ThS fluorescence): greatly inhibited
Aβ1-40 [1]; compound at 20, FIG. 12
  Aβ1-40 fibrils (TEM): reduction in fibrils
Tau 441 [9]
  Tau 441 dimer and trimer bands (SDS-PAGE): appearance of dimer and trimer bands
  effect on Tau 441 self-assembly, monomer fragmentation (SDS-PAGE): decreased fragmentation of tau 441 monomer
Aβ1-40 [3]
  IC50: 1.93 µM

## O=C(O)c1ccc2[nH]cc(-c3ccc4cc(O)ccc4c3)c2c1 [QR-0217]
α-synuclein
  inhibition of α-synuclein aggregation (ThT fluorescence): showed inhibition
[10]
  rescue of LTP impairment: significantly rescued impairment of LTP; also recorded: significantly (P=0.022) rescuing impairment of LTP
